13 compounds from ChEMBL document CHEMBL4477239 (Bioorg Med Chem, 2016) can be followed below.

A short description of series [1]: Intrinsic clearance in rat liver microsomes assessed per mg of protein at 1 uM preincubated for 5 mins followed by NADPH addition measured after 5 to 30 mins by LC-MS/MS analysis. Format: ADME, Microsome. As to conditions: read-out: CLH; call rule not given here.
A further series has as its system NCI-H1993. Description: Cytotoxicity against human NCI-H1993 cells assessed as growth inhibition after 72 hrs by CCK-8 assay. As to conditions: NCI-H1993, 72 h.
Series [2] can be described thus: Intrinsic clearance in human liver microsomes assessed per mg of protein at 1 uM preincubated for 5 mins followed by NADPH addition measured after 5 to 30 mins by LC-MS/MS analysis. Format: ADME, Microsome. To be noted: read-out: CLH.
Series [3] concerns the target T1, Cytochrome P450 3A4 (Homo sapiens, UniProt P08684). Description: Inhibition of CYP3A4 in human liver microsomes at 10 uM using ketoconazole as […] preincubated for 5 mins followed by NADPH addition measured after 20 mins by LC-MS/MS analysis. Format: ADME.
The target in another series is Cytochrome P450 2C9 (Homo sapiens, UniProt P11712). The series can be described thus: Inhibition of CYP2C9 in human liver microsomes at 10 uM using sulfaphenazole as […] preincubated for 5 mins followed by NADPH addition measured after 20 mins by LC-MS/MS analysis. It counts as ADME.
Series [4] concerns the target T1, Cytochrome P450 3A4. Description: Time-dependent inhibition of CYP3A4 in human liver microsomes at 10 uM using troleandomycin as […] preincubated with compound followed by NADPH addition by LC-MS/MS analysis. It counts as ADME.
Series [5] is described as follows: Apparent permeability from basolateral to apical side in Caco2 cells at 1 to 10 uM incubated for 90 mins by LC-MS/MS analysis. It counts as ADME, cell-based. As to conditions: human, Caco-2.
A short description of series [6]: Efflux ratio of permeability from basolateral to apical side over apical to basolateral side in Caco2 cells at 1 to 10 uM incubated for 90 mins by LC-MS/MS analysis. Format: ADME, cell-based. As to conditions: human, Caco-2.
Series [7] concerns the target Hepatocyte growth factor receptor (Homo sapiens, UniProt P08581).
Description: Inhibition of c-Met kinase (unknown origin) assessed as decrease in phosphorylation of TK substrate-biotin peptide preincubated for 5 to 10 mins followed by ATP addition measured after 30 mins by HTRF assay
A further series can be described thus: in vitro. As to conditions: human, Caco-2.
For a further series, the target named is Cytochrome P450 2C19 (Homo sapiens, UniProt P33261). The series can be described thus: Inhibition of CYP2C19 in human liver microsomes at 10 uM using tranylcypromine as […] preincubated for 5 mins followed by NADPH addition measured after 20 mins by LC-MS/MS analysis. Format: ADME.
Series [8] addresses T2, Cytochrome P450 2D6 (Homo sapiens, UniProt P10635). The series can be described thus: Time-dependent inhibition of CYP2D6 in human liver microsomes at 10 uM using paroxetine as […] preincubated with compound followed by NADPH addition by LC-MS/MS analysis. It counts as ADME.
In series [9] the target is T3, Cytochrome P450 1A2 (Homo sapiens, UniProt P05177).
T3 sequence (P05177 whole entry): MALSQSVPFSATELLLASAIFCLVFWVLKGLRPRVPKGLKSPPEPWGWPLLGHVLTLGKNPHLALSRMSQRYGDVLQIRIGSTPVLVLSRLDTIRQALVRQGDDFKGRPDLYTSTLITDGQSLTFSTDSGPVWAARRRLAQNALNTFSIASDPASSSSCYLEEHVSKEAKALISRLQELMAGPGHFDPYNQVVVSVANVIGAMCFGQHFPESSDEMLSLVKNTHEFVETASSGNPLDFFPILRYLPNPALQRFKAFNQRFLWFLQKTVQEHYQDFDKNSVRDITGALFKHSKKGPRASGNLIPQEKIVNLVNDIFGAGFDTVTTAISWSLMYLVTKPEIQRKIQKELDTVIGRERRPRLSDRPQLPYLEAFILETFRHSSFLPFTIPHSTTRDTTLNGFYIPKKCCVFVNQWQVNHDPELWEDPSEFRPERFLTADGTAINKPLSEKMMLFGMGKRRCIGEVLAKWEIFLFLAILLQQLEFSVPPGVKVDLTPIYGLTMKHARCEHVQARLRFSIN
Description: Time-dependent inhibition of CYP1A2 in human liver microsomes at 10 uM using furafylline as […] preincubated with compound followed by NADPH addition by LC-MS/MS analysis. Format: ADME.

Series [10] addresses T2, Cytochrome P450 2D6. The series can be described thus: Inhibition of CYP2D6 in human liver microsomes at 10 uM using quinidine as […] preincubated for 5 mins followed by NADPH addition measured after 20 mins by LC-MS/MS analysis. Format: ADME.
For series [11], the target named is T3, Cytochrome P450 1A2. The series can be described thus: Inhibition of CYP1A2 in human liver microsomes at 10 uM using naphthoflavone as […] preincubated for 5 mins followed by NADPH addition measured after 20 mins by LC-MS/MS analysis. Format: ADME.

T1 sequence (P08684 whole entry): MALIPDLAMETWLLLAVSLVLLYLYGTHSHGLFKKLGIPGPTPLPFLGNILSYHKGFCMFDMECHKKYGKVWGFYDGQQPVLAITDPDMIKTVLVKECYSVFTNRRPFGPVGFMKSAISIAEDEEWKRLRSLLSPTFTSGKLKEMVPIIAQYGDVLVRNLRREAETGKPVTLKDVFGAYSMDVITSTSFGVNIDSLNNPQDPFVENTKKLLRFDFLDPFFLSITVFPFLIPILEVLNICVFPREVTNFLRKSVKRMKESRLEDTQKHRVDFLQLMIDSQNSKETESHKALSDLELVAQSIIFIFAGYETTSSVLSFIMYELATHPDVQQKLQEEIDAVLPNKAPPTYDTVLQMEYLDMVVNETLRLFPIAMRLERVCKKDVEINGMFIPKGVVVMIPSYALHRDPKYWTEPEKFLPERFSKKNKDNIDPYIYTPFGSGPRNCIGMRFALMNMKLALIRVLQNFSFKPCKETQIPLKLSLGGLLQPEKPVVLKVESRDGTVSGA
Sequence of Hepatocyte growth factor receptor (P08581 whole entry): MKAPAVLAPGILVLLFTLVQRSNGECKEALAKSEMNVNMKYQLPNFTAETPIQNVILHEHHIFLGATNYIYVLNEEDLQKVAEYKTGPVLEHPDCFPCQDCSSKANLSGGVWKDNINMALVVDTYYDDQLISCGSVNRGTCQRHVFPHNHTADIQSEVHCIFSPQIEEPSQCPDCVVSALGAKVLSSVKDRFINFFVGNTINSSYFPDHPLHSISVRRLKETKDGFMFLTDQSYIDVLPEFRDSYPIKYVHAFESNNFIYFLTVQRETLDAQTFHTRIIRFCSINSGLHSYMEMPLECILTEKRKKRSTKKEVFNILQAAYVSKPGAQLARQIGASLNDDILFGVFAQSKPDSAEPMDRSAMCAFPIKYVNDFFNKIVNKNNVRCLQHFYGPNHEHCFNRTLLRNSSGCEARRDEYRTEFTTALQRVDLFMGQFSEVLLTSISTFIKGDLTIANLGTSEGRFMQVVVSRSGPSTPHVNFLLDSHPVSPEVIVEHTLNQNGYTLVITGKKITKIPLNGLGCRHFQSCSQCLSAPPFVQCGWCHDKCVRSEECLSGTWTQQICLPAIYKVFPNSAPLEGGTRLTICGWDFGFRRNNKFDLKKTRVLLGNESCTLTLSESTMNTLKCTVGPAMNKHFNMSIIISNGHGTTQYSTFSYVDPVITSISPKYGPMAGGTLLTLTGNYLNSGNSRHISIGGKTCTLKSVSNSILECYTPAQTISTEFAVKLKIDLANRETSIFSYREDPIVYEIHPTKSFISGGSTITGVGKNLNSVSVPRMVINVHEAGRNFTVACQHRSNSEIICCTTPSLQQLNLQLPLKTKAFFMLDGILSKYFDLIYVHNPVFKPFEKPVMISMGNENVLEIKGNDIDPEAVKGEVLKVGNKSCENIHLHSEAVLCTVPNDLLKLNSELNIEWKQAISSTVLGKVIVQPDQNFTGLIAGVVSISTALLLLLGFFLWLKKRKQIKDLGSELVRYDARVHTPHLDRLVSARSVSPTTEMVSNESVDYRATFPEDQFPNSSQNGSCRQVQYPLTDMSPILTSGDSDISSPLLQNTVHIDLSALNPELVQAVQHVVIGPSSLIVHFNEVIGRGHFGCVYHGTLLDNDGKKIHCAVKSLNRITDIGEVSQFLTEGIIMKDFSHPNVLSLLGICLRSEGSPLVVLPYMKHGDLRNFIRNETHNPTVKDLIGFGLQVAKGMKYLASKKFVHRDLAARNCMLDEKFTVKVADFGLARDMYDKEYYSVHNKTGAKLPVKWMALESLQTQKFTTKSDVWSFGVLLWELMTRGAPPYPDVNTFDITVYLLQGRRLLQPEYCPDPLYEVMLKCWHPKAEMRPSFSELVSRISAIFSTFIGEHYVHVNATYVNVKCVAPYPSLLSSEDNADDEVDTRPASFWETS
Sequence of Cytochrome P450 2C19 (P33261 whole entry): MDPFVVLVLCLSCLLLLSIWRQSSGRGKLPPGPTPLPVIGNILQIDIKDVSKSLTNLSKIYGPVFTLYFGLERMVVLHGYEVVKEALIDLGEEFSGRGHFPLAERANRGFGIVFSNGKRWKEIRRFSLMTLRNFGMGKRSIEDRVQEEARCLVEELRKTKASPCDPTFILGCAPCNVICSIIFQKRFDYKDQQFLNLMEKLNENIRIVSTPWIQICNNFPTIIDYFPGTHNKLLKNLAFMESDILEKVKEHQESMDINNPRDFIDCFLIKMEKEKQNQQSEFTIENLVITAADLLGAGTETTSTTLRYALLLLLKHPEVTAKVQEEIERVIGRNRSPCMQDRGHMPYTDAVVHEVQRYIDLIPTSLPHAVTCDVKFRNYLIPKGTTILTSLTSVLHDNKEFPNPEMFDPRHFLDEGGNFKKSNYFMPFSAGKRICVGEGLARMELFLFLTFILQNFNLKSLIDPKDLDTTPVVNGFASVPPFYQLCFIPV
T2 sequence (P10635 whole entry): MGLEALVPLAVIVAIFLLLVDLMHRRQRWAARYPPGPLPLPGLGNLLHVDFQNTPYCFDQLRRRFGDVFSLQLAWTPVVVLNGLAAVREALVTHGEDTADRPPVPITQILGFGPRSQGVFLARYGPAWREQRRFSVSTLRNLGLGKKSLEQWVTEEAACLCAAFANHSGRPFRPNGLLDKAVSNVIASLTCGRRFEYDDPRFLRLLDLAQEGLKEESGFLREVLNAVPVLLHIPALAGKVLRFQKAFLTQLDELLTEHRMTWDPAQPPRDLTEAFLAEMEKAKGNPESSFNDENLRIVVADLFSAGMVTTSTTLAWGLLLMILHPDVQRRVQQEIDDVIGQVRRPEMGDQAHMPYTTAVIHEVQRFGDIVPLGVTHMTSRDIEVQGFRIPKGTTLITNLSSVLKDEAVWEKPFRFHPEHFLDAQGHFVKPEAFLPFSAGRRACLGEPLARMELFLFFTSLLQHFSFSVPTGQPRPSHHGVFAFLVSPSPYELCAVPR
Sequence of Cytochrome P450 2C9 (P11712 whole entry): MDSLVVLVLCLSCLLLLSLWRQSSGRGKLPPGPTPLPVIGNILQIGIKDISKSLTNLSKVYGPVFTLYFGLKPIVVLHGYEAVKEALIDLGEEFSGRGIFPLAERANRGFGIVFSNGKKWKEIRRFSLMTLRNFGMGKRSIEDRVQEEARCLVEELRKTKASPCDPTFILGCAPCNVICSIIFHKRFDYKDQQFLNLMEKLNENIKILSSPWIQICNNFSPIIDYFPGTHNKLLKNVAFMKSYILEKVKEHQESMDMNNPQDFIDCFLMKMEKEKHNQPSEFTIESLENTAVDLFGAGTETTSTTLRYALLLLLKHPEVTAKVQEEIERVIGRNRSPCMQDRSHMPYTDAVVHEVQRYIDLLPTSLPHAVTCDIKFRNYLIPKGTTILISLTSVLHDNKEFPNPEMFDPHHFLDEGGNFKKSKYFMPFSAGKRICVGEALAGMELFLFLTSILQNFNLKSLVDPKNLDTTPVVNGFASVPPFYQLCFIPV
Description for in vitro: Apparent permeability from apical to basolateral side in Caco2 cells at 1 to 10 uM incubated for 90 mins by LC-MS/MS analysis

`C[C@@H](c1cc2cccnc2cc1F)n1cnc2ncc(-c3ccc(C(N)=O)c(F)c3)nc21`: the microsomal CLint at 1 µM stood at 131 µL/min/mg in [1] and 23 µL/min/mg in series [2]. The IC50 with NCI-H1993 was 11.8 nM; in series [7], 1.32 nM. Besides, the “inhibition (INH)” value on Cytochrome P450 3A4 [3] is on record as “Active”; against Cytochrome P450 2C9 it was “Active”; on Cytochrome P450 3A4 [4], “Not Active”. The Papp B→A at 1.5 h in series [5] amounted to 47.9 ×10⁻⁶ cm/s. The efflux ratio at 1.5 h in series [6] worked out at 1.1. For the same compound, in the series “in vitro”, the Papp A→B at 1.5 h, 10 µM was determined as 43.7 ×10⁻⁶ cm/s.
As for `CC(c1c(F)cc2ncccc2c1F)n1cnc2ncc(-c3cnn(C)c3)nc21` (stereo unspecified), the microsomal CLint at 1 µM in series [1] was 63 µL/min/mg; in series [2], 11 µL/min/mg. The IC50 in the series with NCI-H1993 is 35.5 nM; in [7] it was 1 nM. The “inhibition (INH)” value against Cytochrome P450 2C9 was “Active”; on Cytochrome P450 2C19 it was “Active”; on Cytochrome P450 3A4 [4], “Not Active”; on Cytochrome P450 2D6 [8], “Not Active”; on Cytochrome P450 1A2 [9], “Not Active”.
As to `CNC(=O)c1ccc(-c2cnc3ncn(C(C)c4cc5cccnc5cc4F)c3n2)cc1F` (stereo unspecified), the microsomal CLint at 1 µM in series [1] turned out to be 85 µL/min/mg; in series [2], 16 µL/min/mg. Also, the figures for the IC50 (in the series on NCI-H1993; in [7]) were 32.7 nM and 2.3 nM, respectively. Moreover, the “inhibition (INH)” value against Cytochrome P450 3A4 [3], at Cytochrome P450 2D6 [10], against Cytochrome P450 2C9, against Cytochrome P450 2C19 and at Cytochrome P450 3A4 [4] was “Active” in each case. Also, the Papp B→A at 1.5 h in [5] is 39.5 ×10⁻⁶ cm/s. Also, the efflux ratio at 1.5 h in [6] worked out at 0.99. Besides, in “in vitro”, the Papp A→B at 1.5 h, 10 µM came to 39.8 ×10⁻⁶ cm/s.
For the compound `COC(=O)c1ccc(-c2cnc3ncn(C(C)c4cc5cccnc5cc4F)c3n2)cc1F` (stereo unspecified), the microsomal CLint at 1 µM worked out at 125 µL/min/mg in series [1] and 73 µL/min/mg in series [2]. For the same compound, the IC50 came to 60.2 nM in the series on NCI-H1993 and 2.9 nM in [7]. Besides, the “inhibition (INH)” value is on record as “Active” at Cytochrome P450 2C9, “Not Active” at Cytochrome P450 3A4 [4], “Not Active” on Cytochrome P450 2D6 [8] and “Not Active” on Cytochrome P450 1A2 [9].
Consider `CC(c1c(F)cc2ncccc2c1F)n1cnc2ncc(-c3cnn(CCO)c3)nc21` (stereo unspecified), for which the figures for the microsomal CLint at 1 µM in [1] and in [2] were 10 µL/min/mg and 2 µL/min/mg, respectively. The results for the IC50 (with NCI-H1993; in series [7]) were 83.7 nM and 1 nM, respectively. Moreover, the “inhibition (INH)” value is on record as “Active” against Cytochrome P450 2C9, “Not Active” at Cytochrome P450 3A4 [4], “Not Active” at Cytochrome P450 2D6 [8] and “Not Active” at Cytochrome P450 1A2 [9].
With `CC(=O)O[C@H]1C(=O)[C@@]2(C)[C@H]([C@H](OC(=O)c3ccccc3)[C@]3(O)C[C@H](OC(=O)[C@H](O)[C@@H](NC(=O)c4ccccc4)c4ccccc4)C(C)=C1C3(C)C)[C@]1(OC(C)=O)CO[C@@H]1C[C@@H]2O` [PACLITAXEL], the Papp B→A at 1.5 h in [5] stood at 3.3 ×10⁻⁶ cm/s. Moreover, the efflux ratio at 1.5 h in series [6] amounted to 2.27. The Papp A→B at 1.5 h, 10 µM in “in vitro” is 1.46 ×10⁻⁶ cm/s.
As for `CC(c1c(F)cc2ncccc2c1F)n1cnc2ncc(-c3cnc4ccccc4c3)nc21` (stereo unspecified), the microsomal CLint at 1 µM amounted to 275 µL/min/mg in series [1] and 51 µL/min/mg in series [2]. Further, the figures for the IC50 (in the series on NCI-H1993; in series [7]) were 46.1 nM and 1.3 nM, respectively. Besides, the “inhibition (INH)” value at Cytochrome P450 2D6 [10], against Cytochrome P450 2C9, on Cytochrome P450 2C19, at Cytochrome P450 3A4 [4], on Cytochrome P450 2D6 [8] and at Cytochrome P450 1A2 [9] was “Active” in each case.
For the compound `CC(c1c(F)cc2ncccc2c1F)n1cnc2ncc(-c3ccncc3)nc21` (stereo unspecified), the figures for the microsomal CLint at 1 µM in series [1] and in series [2] were 77 µL/min/mg and 14 µL/min/mg, respectively. Moreover, the IC50 in the series with NCI-H1993 amounted to 162 nM; in series [7] it was 1.6 nM. Moreover, the “inhibition (INH)” value against Cytochrome P450 3A4 [3] is given as “Active”; against Cytochrome P450 2C9 it was “Active”; against Cytochrome P450 2C19, “Active”; on Cytochrome P450 3A4 [4], “Not Active”; at Cytochrome P450 2D6 [8] it was “Not Active”; at Cytochrome P450 1A2 [9] it was “Not Active”.
In turn, `O=C1OC2(c3ccc([O-])cc3Oc3cc([O-])ccc32)c2ccccc21.[Na+].[Na+]` registered a Papp A→B at 1.5 h, 10 µM in the series “in vitro” of 2.72 ×10⁻⁶ cm/s.
With `COC(=O)c1ccc(-c2cnc3ncn(C(C)c4c(F)cc5ncccc5c4F)c3n2)cc1F` (stereo unspecified), the microsomal CLint at 1 µM was 179 µL/min/mg in [1] and 290 µL/min/mg in [2]. Moreover, the values for the IC50 (in the series with NCI-H1993; in series [7]) were 29.4 nM and 4.9 nM, respectively. The “inhibition (INH)” value at Cytochrome P450 2C9 is given as “Active”; on Cytochrome P450 3A4 [4], “Not Active”; at Cytochrome P450 2D6 [8], “Not Active”; at Cytochrome P450 1A2 [9] it was “Not Active”.
In the case of `CC(C)NCC(O)COc1cccc2ccccc12` (stereo unspecified) [PROPRANOLOL], the Papp A→B at 1.5 h, 10 µM in the series “in vitro” amounted to 21.5 ×10⁻⁶ cm/s.
Consider `CC(c1cc2cccnc2cc1F)n1cnc2ncc(-c3cnn(C)c3)nc21` (stereo unspecified), for which the microsomal CLint at 1 µM in [1] was 18 µL/min/mg; in series [2] it was 9 µL/min/mg. Further, the IC50 was 31.3 nM in the series on NCI-H1993 and 1.6 nM in series [7]. The “inhibition (INH)” value against Cytochrome P450 3A4 [3], against Cytochrome P450 2D6 [10], against Cytochrome P450 2C9, against Cytochrome P450 1A2 [11], against Cytochrome P450 2C19 and at Cytochrome P450 3A4 [4] was “Not Active” throughout. Besides, the “inhibition (INH)” value on Cytochrome P450 2D6 [8] and on Cytochrome P450 1A2 [9] was “Not Active” in each case. In series [5], the Papp B→A at 1.5 h is 40.1 ×10⁻⁶ cm/s. Further, in series [6], the efflux ratio at 1.5 h was determined as 1.02. In “in vitro”, the Papp A→B at 1.5 h, 10 µM stood at 39.3 ×10⁻⁶ cm/s.
On to `CC(c1cc2cccnc2cc1F)n1cnc2ncc(-c3ccc(C(N)=O)c(F)c3)nc21` (stereo unspecified), for which the microsomal CLint at 1 µM in series [1] turned out to be 85 µL/min/mg; in [2] it was 14 µL/min/mg. Besides, the IC50 in the series on NCI-H1993 came to 19.5 nM; in [7], 1.7 nM. Besides, the “inhibition (INH)” value is recorded as “Active” at Cytochrome P450 2C9, “Not Active” on Cytochrome P450 3A4 [4], “Not Active” at Cytochrome P450 2D6 [8] and “Not Active” on Cytochrome P450 1A2 [9]. Also, in series [5], the apparent permeability from basolateral to apical (Papp B→A) at 1.5 h is 81.4 ×10⁻⁶ cm/s. In [6], the efflux ratio at 1.5 h was found to be 0.99. The apical-to-basolateral permeability (Papp A→B) at 1.5 h, 10 µM in “in vitro” was found to be 82.3 ×10⁻⁶ cm/s.
